Bounds are passed on as bounds.

In US10118902B2 (Sanford Burnham Prebys Medical Discovery Institute, priority 2014, dated 2018) one finds EC50 data, which are given here for 27 compounds.

Sequence of neurotensin receptor 1 (NTR1) (P30989 whole entry, species assumed): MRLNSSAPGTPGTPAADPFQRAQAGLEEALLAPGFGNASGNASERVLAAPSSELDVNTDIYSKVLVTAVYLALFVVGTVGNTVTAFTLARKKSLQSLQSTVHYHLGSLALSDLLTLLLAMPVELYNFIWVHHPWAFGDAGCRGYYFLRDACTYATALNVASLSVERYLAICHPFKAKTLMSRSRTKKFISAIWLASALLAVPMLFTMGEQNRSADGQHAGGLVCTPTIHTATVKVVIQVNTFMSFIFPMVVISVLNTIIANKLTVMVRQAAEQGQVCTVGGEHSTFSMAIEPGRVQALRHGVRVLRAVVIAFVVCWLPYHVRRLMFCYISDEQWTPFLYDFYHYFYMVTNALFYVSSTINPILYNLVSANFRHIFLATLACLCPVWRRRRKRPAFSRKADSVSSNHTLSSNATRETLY

One experiment has as its target neurotensin receptor 1 (NTR1) (Homo sapiens (Human), UniProt P30989). The experiment in a line: NTR1 dose response, high-content imaging beta-arrestin-GFP assay in NTR1-U2OS cells. Type of experiment: cell-based. Set-up: scale not given here.
Conditions: not given
The source says: The cell lines utilized in the high-content imaging assays, which include the NTR1-, NTR2-, and GPR35-U2OS osteosarcomas, were obtained from the laboratory of Dr. Lawrence Barak at the Duke University Medical Center. The media used in the culture of the cell lines, as well as the assays themselves, consisted of Minimum Essential Medium (15-010-CM) and L-glutamine (25-005-CL) from Cellgro/Mediatech (Manassas, Va.), fetal bovine serum (SH30396.03) from Hyclone (Logan, Utah), penicillin-streptomycin solution (PS-20) from Omega Scientific in Tarzana, Calif., G418 (ant-gn-1) from Invivogen (San Diego, Calif.), and zeocin (R250-01) from Invitrogen (Carlsbad, Calif.). Cell lines were cultured in T225 tissue culture flasks (431082) supplied by Corning (Corning, N.Y.). Additional reagents employed include Dulbecco's Phosphate-Buffered Saline (DPBS) (21-031CV) from Cellgro/Mediatech, Trypsin-EDTA 0.05% (25300) from Invitrogen, paraformaldehyde (30528954) from Acros Organics (Geel, Belgium), Hoechst 33342 (H3570) from Invitrogen. The high-content assays were run in 1536-well plates (29326) supplied by Aurora Biotechnology (Poway, Calif.) and utilized aluminum plate seals (T592100) from E&K Scientific (Santa Clara, Calif.). […]
The high-content imaging based NTR1 primary screen in 1536-well format was utilized to assay the MLSMR library of chemical entities in the following manner. On day one, 4 uL of a cell suspension containing 350,000 NTR1-U2OS cells per mL is added to each well of a 1536-well assay plate. Cells are plated in MEM medium containing 2.5% Fetal Bovine Serum, 1% Penicillin/Streptomycin solution, 1% L-Glutamine, 400 ug/mL G418, and 200 ug/mL Zeocin. The assay plates are then incubated overnight at 37° C., under 5% CO2. Following the overnight incubation, a volume of 60 nL of the compounds at 2 mM in DMSO (final 20 μM, 1% DMSO) was transferred to columns 5-48 of the assay plates using a LabCyte Echo Liquid Handler. Next, 60 nL of DMSO were dispensed to columns 1-4, which served as the positive and neutral control wells. […] The assay plates were centrifuged on an Eppendorf 5810 centrifuge at 1000 rpm for 1 min to ensure even liquid levels in the wells of the assay plates. The assay plates were then returned to the incubator for 1 hour. Following the hour-long incubation at 37° C., the cells in each well were fixed with 4 uL of 6% paraformaldehyde added with a Multidrop Combi. The assay plates were centrifuged as before and incubated at room temperature for 1 hour. On the Kalypsys, plates were then aspirated down to 2.5 uL per well and washed twice with 11 uL per well of DPBS, followed by a final aspiration to 2.5 uL per well. On the Combi dispenser, 5 uL of 5 ug/mL Hoechst 33342 diluted in DPBS was added to each well of assay plates. The plates were again centrifuged as previously described, sealed, and incubated for at least 1 hour prior to being loaded on a PerkinElmer Opera QEHS.
Image acquisition was performed with a 45 plate capacity loader/stacker and the following settings: 40×0.6 NA air objective, acquisition camera set to 2-by-2 binning for an image size of 688 by 512 pixels, beta-arrestin-GFP acquired using 488 nm laser excitation and 540/75 nm emission filters, DAPI (nuclei) using 365 nm Xenon lamp excitation and 450/50 nm emission filters, 3 fields per well. Image analysis was performed using the Acapella Spot Detection Algorithm. For analysis settings and the metrics employed in the data analyses, please refer to supplemental information.
Compounds that were successfully confirmed in quadruplicate at 20 uM were then run in dose response in the primary assay. As with the single concentration hit confirmation, the assay was performed in an identical manner as the primary screen with the following modifications. […]
Broadly, the EC50 is the midpoint of the concentration-response curve. In the case of `COc1ccccc1C1CCN(c2nc(C3CCC3)nc3ccc(N(C)C)cc23)CC1` [Example 42, {2-cyclobutyl-4-[4-(2-methoxy-phenyl)-piperidin-1-yl]-quinazolin-6-yl}-dimethyl-amine], the 50% effective concentration (EC50) result is “C or D”.

Staying with this experiment, now noted: read-out: EC50.
In the case of `COc1ccccc1C1CCN(c2nc(C3(C)CC3)nc3ccc(N(C)CCO)cc23)CC1` [Example 22, 2-{[4-[4-(2-methoxy-phenyl)-piperidin-1-yl]-2-(1-methyl-cyclopropyl)-quinazolin-6-yl]-methyl-amino}-ethanol], the EC50 was less than 0.5 µM.
On the same count and under the same terms, for `COc1ccccc1C1CCN(c2nc(C3(C)CC3)nc3ccc(N(C)CCN(C)C)cc23)CC1` [Example 23, N-[4-[4-(2-methoxy-phenyl)-piperidin-1-yl]-2-(1-methyl-cyclopropyl)-quinazolin-6-yl]-N,N′,N′-trimethyl-ethane-1,2-diamine] the value was greater than 10 µM; for `COc1ccccc1C1CCN(c2nc(C3(C)CC3)nc3ccc(N(C)CCN4CCCC4)cc23)CC1` [Example 24, [4-[4-(2-methoxy-phenyl)-piperidin-1-yl]-2-(1-methyl-cyclopropyl)-quinazolin-6-yl]-methyl-(2-pyrrolidin-1-yl-ethyl)-amine], 2 to 10 µM.
Turning to `CN(C)c1ccccc1C1CCN(c2nc(C3(C)CC3)nc3ccc(N(C)CCO)cc23)CC1` [Example 25, 2-{[4-[4-(2-dimethylamino-phenyl)-piperidin-1-yl]-2-(1-methyl-cyclopropyl)-quinazolin-6-yl]-methyl-amino}-ethanol], the EC50 is 2 to 10 µM.
Turning to `COCCN(C)c1ccc2nc(C3(C)CC3)nc(N3CCC(c4ccccc4N(C)C)CC3)c2c1` [Example 26, [4-[4-(2-dimethylamino-phenyl)-piperidin-1-yl]-2-(1-methyl-cyclopropyl)-quinazolin-6-yl]-(2-methoxy-ethyl)-methyl-amine], the EC50 was greater than 10 µM.
With `CN(C)c1ccccc1C1CCN(c2nc(C3(C)CC3)nc3ccc(N(C)CCN4CCOCC4)cc23)CC1` [Example 27], the 50% effective concentration (EC50) is greater than 10 µM.
Take `CN(C)CCN(C)c1ccc2nc(C3(C)CC3)nc(N3CCC(c4ccccc4N(C)C)CC3)c2c1` [Example 28, N-[4-[4-(2-dimethylamino-phenyl)-piperidin-1-yl]-2-(1-methyl-cyclopropyl)-quinazolin-6-yl]-N,N′,N′-trimethyl-ethane-1,2-diamine]: the EC50 is greater than 10 µM.
On to `CN(C)c1ccccc1C1CCN(c2nc(C3(C)CC3)nc3ccc(N(C)CCN4CCCC4)cc23)CC1` [Example 29, [4-[4-(2-dimethylamino-phenyl)-piperidin-1-yl]-2-(1-methyl-cyclopropyl)-quinazolin-6-yl]-methyl-(2-pyrrolidin-1-yl-ethyl)-amine], for which the EC50 was greater than 10 µM.
On the same count and under the same terms, for `CN(CCO)c1ccc2nc(C3(C)CC3)nc(N3CCC(c4ccccc4N4CCC4)CC3)c2c1` [Example 30, 2-{[4-[4-(2-azetidin-1-yl-phenyl)-piperidin-1-yl]-2-(1-methyl-cyclopropyl)-quinazolin-6-yl]-methyl-amino}-ethanol] the value was 2 to 10 µM.
Still for that read-out and setting: for `COCCN(C)c1ccc2nc(C3(C)CC3)nc(N3CCC(c4ccccc4N4CCC4)CC3)c2c1` [Example 31, [4-[4-(2-azetidin-1-yl-phenyl)-piperidin-1-yl]-2-(1-methyl-cyclopropyl)-quinazolin-6-yl]-(2-methoxy-ethyl)-methyl-amine] the value was greater than 10 µM; for `CN(CCN1CCOCC1)c1ccc2nc(C3(C)CC3)nc(N3CCC(c4ccccc4N4CCC4)CC3)c2c1` [Example 32, [4-[4-(2-azetidin-1-yl-phenyl)-piperidin-1-yl]-2-(1-methyl-cyclopropyl)-quinazolin-6-yl]-methyl-(2-morpholin-4-yl-ethyl)-amine], greater than 10 µM.
For the compound `COCCN(C)c1ccc2nc(C3(C)CC3)nc(N3CCC(c4ccccc4OC)CC3)c2c1` [Example 33, N-(2-methoxyethyl)-4-(4-(2-methoxyphenyl)piperidin-1-yl)-N-methyl-2-(1-methylcyclopropyl)quinazolin-6-amine], the EC50 lay within 2 to 10 µM.
On the same count and under the same terms, for `COc1ccccc1C1CCN(c2nc(C3(C)CC3)nc3ccc(N(C)CCN4CCOCC4)cc23)CC1` [Example 34, 4-(4-(2-methoxyphenyl)piperidin-1-yl)-N-methyl-2-(1-methylcyclopropyl)-N-(2-morpholinoethyl) quinazolin-6-amine] the value was 2 to 10 µM; for `CN(C)CCN(C)c1ccc2nc(C3(C)CC3)nc(N3CCC(c4ccccc4N4CCC4)CC3)c2c1` [Example 35, N-[4-[4-(2-azetidin-1-yl-phenyl)-piperidin-1-yl]-2-(1-methyl-cyclopropyl)-quinazolin-6-yl]-N,N′,N′-trimethyl-ethane-1,2-diamine], greater than 10 µM; for `CN(CCN1CCCC1)c1ccc2nc(C3(C)CC3)nc(N3CCC(c4ccccc4N4CCC4)CC3)c2c1` [Example 36, [4-[4-(2-azetidin-1-yl-phenyl)-piperidin-1-yl]-2-(1-methyl-cyclopropyl)-quinazolin-6-yl]-methyl-(2-pyrrolidin-1-yl-ethyl)-amine], greater than 10 µM.
As to `COc1ccccc1C1CCN(c2nc(C3CCCC3)nc3ccc(N(C)C)cc23)CC1` [Example 37, {2-cyclopentyl-4-[4-(2-methoxy-phenyl)-piperidin-1-yl]-quinazolin-6-yl}-dimethyl-amine], the EC50 was greater than 10 µM.
For `COc1ccccc1C1CCN(c2nc(C3CCCC3)nc3ccc(N(C)CCO)cc23)CC1` [Example 38, 2-({2-cyclopentyl-4-[4-(2-methoxy-phenyl)-piperidin-1-yl]-quinazolin-6-yl}-methyl-amino)-ethanol], the concentration for a half-maximal effect (EC50) is 2 to 10 µM.
Still for that read-out and setting: for `COCCN(C)c1ccc2nc(C3CCCC3)nc(N3CCC(c4ccccc4OC)CC3)c2c1` [Example 39, {2-cyclopentyl-4-[4-(2-methoxy-phenyl)-piperidin-1-yl]-quinazolin-6-yl}-(2-methoxy-ethyl)-methyl-amine] the value was greater than 10 µM; for `CCCN(C)c1ccc2nc(C3CCCC3)nc(N3CCC(c4ccccc4OC)CC3)c2c1` [Example 40], greater than 10 µM.
Take `COc1ccccc1C1CCN(c2nc(C3CCCC3)nc3ccc(N(C)CCN4CCOCC4)cc23)CC1` [Example 41]: the EC50 is greater than 10 µM.
`COc1ccccc1C1CCN(c2nc(C3CCC3)nc3ccc(N(C)CCO)cc23)CC1` [Example 43, 2-({2-cyclobutyl-4-[4-(2-methoxy-phenyl)-piperidin-1-yl]-quinazolin-6-yl}-methyl-amino)-ethanol]: the concentration giving a half-maximal response (EC50) lay in the range of 0.5 to 2 µM.
The same measure, in the same setting: for `COCCN(C)c1ccc2nc(C3CCC3)nc(N3CCC(c4ccccc4OC)CC3)c2c1` [Example 44] the value was 2 to 10 µM; for `CCCN(C)c1ccc2nc(C3CCC3)nc(N3CCC(c4ccccc4OC)CC3)c2c1` [Example 45, {2-cyclobutyl-4-[4-(2-methoxy-phenyl)-piperidin-1-yl]-quinazolin-6-yl}-methyl-propyl-amine], greater than 10 µM.
In the case of `COc1ccccc1C1CCN(c2nc(C3CCC3)nc3ccc(N(C)CCN4CCOCC4)cc23)CC1` [Example 46, {2-cyclobutyl-4-[4-(2-methoxy-phenyl)-piperidin-1-yl]-quinazolin-6-yl}-methyl-(2-morpholin-4-yl-ethyl)-amine], the EC50 lay in the range of 2 to 10 µM.
As to `COc1ccccc1C1CCN(c2nc(C3(C(F)(F)F)CC3)nc3ccc(N(C)CCO)cc23)CC1` [Example 47, 2-{[4-[4-(2-methoxy-phenyl)-piperidin-1-yl]-2-(1-trifluoromethyl-cyclopropyl)-quinazolin-6-yl]-methyl-amino}-ethanol], the EC50 was less than 0.5 µM.
Turning to `COc1ccccc1C1CCN(c2nc(C3(C(F)(F)F)CC3)nc3ccc(N(C)CCN4CCOCC4)cc23)CC1` [Example 48], the EC50 lay in the range of 2 to 10 µM.
